Test results: patent US20260248780A1, “PHARMACEUTICAL COMPOSITIONS” (Birdie Biopharmaceuticals, Inc., priority 2017, published 2026)
Where a name gives a salt, the structure may show the parent alone. Marks after values point to notes of the source that are not given here.

Tests used:
[1] = Kinetic solubility in water and bio-relevant media (SGF, FaSSIF, FeSSIF) at RT; assay type: physicochemical; settings: for FC: Solid form change / S: Solubility: RT; for solubility compared with freebase Type A: water and bio-relevant media (SGF, FaSSIF, FeSSIF) at RT
Description: After being centrifuged and separated using 0.45 μm Nylon filter, filtrates were collected for HPLC and pH test, and wet cakes for XRPD characterization. If clear solutions were obtained after 24 hours, accurate concentration and purity were measured for the solutions.

[2] = Solubility estimation in solvents at RT; assay type: physicochemical; settings: organic solvent or mixture, thermodynamic from solid
Description: Solubility of Type A was estimated in nine solvents at RT. […] Approximately 2 mg solids were added into a 3-mL glass vial.

For CCOCc1nc2c(N)nc3ccccc3c2n1CC(C)(C)O [Adipate Type A, resiquimod], the “FC: Solid form change” value ([1]; FaSSIF, 1 hr) was “No”, the “S: Solubility” value ([1]; FaSSIF, 1 hr) was 4.3 mg/mL and the “S: Solubility” value ([1]; FaSSIF, 2 hrs) was 4.5 mg/mL. The “S: Solubility” value ([1]; FaSSIF, 4 hrs) was 4.6 mg/mL, the “S: Solubility” value ([1]; FaSSIF, 24 hrs) was 4.5* mg/mL and the “S: Solubility” value ([1]; SGF, 1 hr) was 4.7 mg/mL. For the same molecule, the “S: Solubility” value ([1]; SGF, 2 hrs) was “C (C: Clear)”, the “S: Solubility” value ([1]; SGF, 4 hrs) was “C (C: Clear)” and the “S: Solubility” value ([1]; SGF, 24 hrs) was 4.7* mg/mL. For the same molecule, the “FC: Solid form change” value ([1]; Water, 1 hr) was “No”, the “S: Solubility” value ([1]; Water, 1 hr) was 2.8 mg/mL and the “FC: Solid form change” value ([1]; Water, 2 hrs) was “No”. For the same molecule, the “S: Solubility” value ([1]; Water, 2 hrs) was 2.7 mg/mL, the “FC: Solid form change” value ([1]; Water, 4 hrs) was “No” and the “S: Solubility” value ([1]; Water, 4 hrs) was 2.8 mg/mL. For the same molecule, the “FC: Solid form change” value ([1]; Water, 24 hrs) was “No”, the “S: Solubility” value ([1]; Water, 24 hrs) was 2.7 mg/mL and the “Kinetic Solubility at RT” value ([1]; bio-relevant media) was >4.2 (bio-relevant mg/mL. For the same molecule, the “Kinetic Solubility at RT” value ([1]; water) was ~2.7 (water) mg/mL and the “solubility compared with freebase Type A” value [1] was “improved or comparable solubility”.
For CCOCc1nc2c(N)nc3ccccc3c2n1CC(C)(C)O [sulfate Type A (807919-21-A)], the solubility ([2]; ACN) was less than 2200 µg/mL, the solubility ([2]; DMAc) was greater than 40000 µg/mL and the solubility ([2]; DMSO) was greater than 44000 µg/mL. The solubility ([2]; EtOAc) was less than 2200 µg/mL, the solubility ([2]; IPAc) was less than 2000 µg/mL and the solubility ([2]; MEK) was less than 2000 µg/mL. It also gave a solubility ([2]; MIBK) of less than 2100 µg/mL, a solubility ([2]; MTBE) of less than 2300 µg/mL and a solubility ([2]; NMP) greater than 44000 µg/mL. It also gave a solubility ([2]; anisole) of less than 2200 µg/mL, a solubility ([2]; n-heptane) of less than 2100 µg/mL and a solubility ([2]; toluene) of less than 2000 µg/mL.
With CCOCc1nc2c(N)nc3ccccc3c2n1CC(C)(C)O [Malate Type A, resiquimod] the “S: Solubility” value ([1]; FaSSIF, 1 hr) was “C (C: Clear)”, the “S: Solubility” value ([1]; FaSSIF, 2 hrs) was “C (C: Clear)” and the “S: Solubility” value ([1]; FaSSIF, 4 hrs) was “C (C: Clear)”. The “S: Solubility” value ([1]; FaSSIF, 24 hrs) was 3.7* mg/mL, the “S: Solubility” value ([1]; SGF, 1 hr) was “C (C: Clear)” and the “S: Solubility” value ([1]; SGF, 2 hrs) was “C (C: Clear)”. The “S: Solubility” value ([1]; SGF, 4 hrs) was “C (C: Clear)”, the “S: Solubility” value ([1]; SGF, 24 hrs) was 4.3* mg/mL and the “S: Solubility” value ([1]; Water, 1 hr) was “C (C: Clear)”. For the same molecule, the “S: Solubility” value ([1]; Water, 2 hrs) was “C (C: Clear)”, the “S: Solubility” value ([1]; Water, 4 hrs) was “C (C: Clear)” and the “S: Solubility” value ([1]; Water, 24 hrs) was 3.7* mg/mL. The “solubility compared with freebase Type A” value [1] was “improved or comparable solubility” and the solubility kinetic ([1]; water and bio-relevant media (SGF, FaSSIF, FeSSIF), water, water/bio-relevant media) was greater than 3500 µg/mL.
With CCOCc1nc2c(N)nc3ccccc3c2n1CC(C)(C)O [Di-HCl salt Type A, resiquimod] the “S: Solubility” value ([1]; FaSSIF, 1 hr) was “C (C: Clear)”, the “S: Solubility” value ([1]; FaSSIF, 2 hrs) was “C (C: Clear)” and the “S: Solubility” value ([1]; FaSSIF, 4 hrs) was “C (C: Clear)”. For the same molecule, the “S: Solubility” value ([1]; FaSSIF, 24 hrs) was 3.9* mg/mL, the “S: Solubility” value ([1]; FeSSIF, 1 hr) was “C (C: Clear)” and the “S: Solubility” value ([1]; FeSSIF, 2 hrs) was “C (C: Clear)”. The “S: Solubility” value ([1]; FeSSIF, 4 hrs) was “C (C: Clear)”, the “S: Solubility” value ([1]; FeSSIF, 24 hrs) was 3.9* mg/mL and the “S: Solubility” value ([1]; SGF, 1 hr) was “C (C: Clear)”. The “S: Solubility” value ([1]; SGF, 2 hrs) was “C (C: Clear)”, the “S: Solubility” value ([1]; SGF, 4 hrs) was “C (C: Clear)” and the “S: Solubility” value ([1]; SGF, 24 hrs) was 3.9* mg/mL. For the same molecule, the “solubility compared with freebase Type A” value [1] was “improved or comparable solubility”.
With CCOCc1nc2c(N)nc3ccccc3c2n1CC(C)(C)O [Sulfate Type A, resiquimod] the “S: Solubility” value ([1]; FaSSIF, 1 hr) was “C (C: Clear)”, the “S: Solubility” value ([1]; FaSSIF, 2 hrs) was “C (C: Clear)” and the “S: Solubility” value ([1]; FaSSIF, 4 hrs) was “C (C: Clear)”. The “S: Solubility” value ([1]; FaSSIF, 24 hrs) was 4.0* mg/mL, the “S: Solubility” value ([1]; FeSSIF, 1 hr) was “C (C: Clear)” and the “S: Solubility” value ([1]; SGF, 1 hr) was “C (C: Clear)”. The “S: Solubility” value ([1]; SGF, 2 hrs) was “C (C: Clear)”, the “S: Solubility” value ([1]; SGF, 4 hrs) was “C (C: Clear)” and the “S: Solubility” value ([1]; SGF, 24 hrs) was 3.9* mg/mL. For the same molecule, the “S: Solubility” value ([1]; Water, 1 hr) was “C (C: Clear)”, the “S: Solubility” value ([1]; Water, 2 hrs) was “C (C: Clear)” and the “S: Solubility” value ([1]; Water, 4 hrs) was “C (C: Clear)”. The “S: Solubility” value ([1]; Water, 24 hrs) was 4.1* mg/mL and the “solubility compared with freebase Type A” value [1] was “improved or comparable solubility”.
